{"source": "patent US11739053B2", "about": "“P62-ZZ chemical inhibitor” (ID4PHARMA, LLC, priority 2011, dated 2023)", "key": {"[1]": {"test_system": "Primary human stromal cells", "assay": "Stromal cell growth, MTT assay", "assay_type": "cell-based", "description": "(§1) FIG. 4A-C: 4A. Effect of p62-ZZ inhibitor #3 on myeloma cell growth. MM cell growth was assayed by MTT assay. Data are shown as mean±SD (n=5). FIG. 4B. MTT assay of CD138(+) primary myeloma cells. Data are shown as mean±SD (n=5). FIG. 4C. Effects of p62-ZZ inhibitors on human stromal cell growth. Primary human stromal cells (5×10^3/well) were cultured with 10 μM of p62-ZZ inhibitor (#1-6) containing 10% FCS in IMDM for 48 hours. Stromal cells growth was assayed by MTT assay. Data are shown as the mean±SD (n=5). *P<0.01 compared to vehicle treated culture. MM1.S (3×10^5 cells/well) or CD138 (+) (1×10^5 cells/well) primary myeloma cells were incubated in 96-well plates in the presence of RPMI-1640-10% FCS and various concentrations of p62-ZZ inhibitor #3 at 37° C. 5% CO2 for 48 h to determine the IC50 for inhibiting myeloma cell proliferation."}, "[2]": {"assay": "In vivo toxicity, single dose and multidose MTD study", "description": "(§2) FIG. 10A-D: 10A. Single dose acute toxicity study by Up/Down Methods. Body weights of the mice following dosing. FIG. 10B. Mean body weights of mice during multidose MTD study. Data are shown as mean±SD for 5 mice. FIG. 10C. Median body weight of mice during multidose MTD study. FIG. 10D. Plasma concentrations p62-ZZ antagonist in pilot mice after 100 mg/kg IV.\n(§3) Preliminary in vivo studies of the p62-ZZ antagonist #3 were performed 5 to determine the toxicity, multiple doses MTD and plasma concentration of the antagonist given IV. For the pilot PK study the prototype p62-ZZ antagonist (compound #3) was used as an internal standard for Mass spectroscopy assays."}, "[3]": {"test_system": "Human CD34(+) mononuclear cells", "assay": "CFU-Blast colony formation", "assay_type": "cell-based", "conditions": "all concentrations, 7 days", "description": "FIG. 7A-C: 7A. CFU-Blast colony formation. Human CD34(+) cells were cultured with p62-ZZ inhibitor #3 and 1 ng/ml of rhIL-3 IL-6 and SCF for 7 days. Data are shown as the mean±SD (n=5). FIG. 7B. Human OCL formation. Non-adherent mononuclear cells (2.5×10^7 cells/10-cm dish) derived from human bone marrow samples were cultured in α-MEM containing 10% FCS, 100 pg/ml recombinant human GM-CSF(R & D) for 7 days. Then the cells were collected and plated (cell density is 1.0×10^6 cells/nil) in α-MEM containing 20% horse serum with 1 ng/ml TNFα. Half-media changes were performed twice a week containing various concentrations of the p62-ZZ inhibitor #3. The cultures were incubated for a total of 2 weeks at 37° C. with 5% CO2 and 95% humidity. The osteoclasts were stained with the 23C6 antibody which recognizes CD51/61. Data are shown as the mean±SD (n=5). *P<0.01 compared to vehicle treated cultures. 7C. OCL formation by wild type and p62−/− mouse osteoclast precursors. Data is shown as the mean±SD (n=4). *: P<0.01 compared to no-inhibitor cultures. Whether p62-ZZ inhibitor #3 affects hematopoesis since osteoclast precursors are derived from hematopoietic cells was examined. […] Colonies were scored after 7 days of culture using an inverted microscope."}, "MM1.S myeloma cell line": {"test_system": "MM1.S myeloma cell line", "assay": "MM1.S myeloma cell proliferation, MTT assay", "assay_type": "cell-based, human", "conditions": "48 h", "description": "as §1"}, "[4]": {"assay": "Exploratory metabolic studies"}, "in vivo": {"assay": "in vivo", "conditions": "mouse, iv", "description": "as §2, §3"}, "MM1.S cells": {"test_system": "MM1.S cells", "assay": "Reactive oxygen species detection in MM1.S cells", "assay_type": "cell-based, human", "conditions": "10 μM, 6 hours", "description": "FIG. 9A-C: 9A. […] MM1.S cells were cultured with 10 μM of p62-ZZ antagonist for the indicated time, and then cell lysates were collected. Caspase 9, 7 and 3 were detected by Western blotting using anti-caspase 9, 7 and 3 specific antibodies (Cell Signaling). FIG. 9B. Detection of Apoptosis using the TUNEL reaction with MM1.S cells treated with p62-ZZ antagonist. MM1.S cells were treated with 10/μM of p62-ZZ antagonist #3 for 24 hours and then the cells were collected and mounted on glass slides using the cytospin procedure. Terminal deoxynucleotidyl transferase nick end labeling (TUNEL) reactions were conducted using an In Situ Cell Death Detection Kit (Roche) according to the manufacturer's instructions. The stained cells were analyzed using a fluorescence microscope equipped with standard green filter. FIG. 9C. The p62-ZZ antagonist induced Reactive Oxygen Species in MM1.S cells. MM1.S cells were treated with 10 μM of p62-ZZ antagonist #3 for 6 hours. Cells were collected and stained for Reactive Oxygen Species (ROS) using a Total ROS detection kit (Enzo) according to the manufacturer's instructions. The expression of apoptosis markers in p62-ZZ antagonist treated on 25 MM cells was determined to determine the mechanism action of this antagonist."}}, "data": [{"smiles": "OCCNCc1ccc(OCc2ccccc2)c(OCc2ccccc2)c1", "note": "[Compound 3, 2-[[3,4-bis(phenylmethoxy)phenyl]methylamino]ethanol]", "values": [{"measurement": "toxicity to regular stromal cells", "setting": "[1]", "result": "low toxicity"}, {"measurement": "proliferation of stromal cells by MTT assay", "setting": "[1]; 10 μM, 48 hours", "result": "did not change proliferation"}, {"measurement": "effect on body weight", "setting": "[2]; doses up to 100 mg/kg, single dose or qdx5/day, up to 20 days", "result": "no effect"}, {"measurement": "gross pathology of brain, liver, kidney tissue", "setting": "[2]; mice of the in vivo studies", "result": "no gross pathology"}, {"measurement": "CFU-Blast colony formation", "setting": "[3]", "result": "do not inhibit"}, {"measurement": "growth of MM1.S myeloma cell line (result in words)", "setting": "MM1.S myeloma cell line; FIG. 4A", "result": "directly inhibited"}, {"measurement": "IC50", "setting": "MM1.S myeloma cell line; Homo sapiens, MM1.S", "result": 6.19, "unit": "µM"}, {"measurement": "distinct peaks in metabolic studies (likely hydroxylation or glucuronidation)", "setting": "[4]", "result": 3}, {"measurement": "half-life", "setting": "in vivo", "result": 4, "unit": "h"}, {"measurement": "reactive oxygen species (ROS) production", "setting": "MM1.S cells", "result": "induced reactive oxygen species (ROS) production"}]}]}
